Measured values from article PMC12406192, “Sustainable Joullié–Ugi and Continuous Flow Implementation Led to Novel Captopril-Inspired Broad-Spectrum Metallo-β-Lactamase Inhibitors” (Journal of Medicinal Chemistry, 2025).
In brackets after ≈: the same amount, converted by molar mass.

What was measured:
NDM-1 [1] = target: T1, NDM-1 (Klebsiella pneumoniae, UniProt C7C422); assay: Kinetic fluorescence-based in vitro assay with fluorocillin substrate (IC50); assay type: biochemical; conditions: 30 min preincubation
T1 construct: made in house; host or cells: E. coli
Description: (§1) IC50 values were determined in a kinetic fluorescence-based in vitro assay as described previously. All compounds were preincubated with the recombinant protein for 30 min before addition of the fluorogenic substrate fluorocillin. , The inhibitory activity was also determined (expressed as the percentage of inhibition in the presence of 50 μM compound) using a spectrophotometric assay in which the hydrolysis of imipenem (the reporter substrate) was monitored (see Section for details).
(§2) The inhibitory activity of the compounds was determined using enzyme assays with recombinant NDM-1, VIM-1, VIM-2, IMP-1, and IMP-7. These enzymes were produced in E. coli and purified as previously described. , The fluorogenic substrate fluorocillin was synthesized according to the procedure described by Rukavishnikov et al. The assays were performed in 96-well format using black polystyrene plates (Corning, Corning, NY) at room temperature, and the measurements were carried out on the Tecan spectrophotometer Infinite F200 PRO (Tecan, Männedorf, Switzerland). The protein stock solutions were diluted in assay buffer (HEPES 50 mM, pH 7.5 containing 0.01%Triton X-100, buffer HX) to reach final concentrations of VIM-1–4 nM, IMP-7–0.1 nM; NDM-1–3 nM. Subsequently, 89 μL of the protein solution was mixed with 1 μL of the inhibitor diluted in DMSO (final DMSO concentration 1% at final assay volume of 100 μL) and incubated for 30 min. […] Negative controls were measured in the absence of enzyme (89 μL of assay buffer), whereas the positive controls were measured in the presence of enzyme and in the absence of inhibitors (1 μL of DMSO). Each measurement was performed in triplicate in three independent experiments. IC50 values were calculated using data obtained from measurements with at least eight different inhibitor concentrations, applying a sigmoidal dose–response (variable slope with four parameters) equation using GraphPad Prism 5 (GraphPad Software, La Jolla, CA) software. […] All assays were performed in at least in triplicate.

NDM-1 [2] = target: T1, NDM-1; assay: Spectrophotometric direct competition assay, imipenem hydrolysis (reporter substrate); assay type: biochemical; conditions: for inhibition at 50 µM: read-out: percentage of inhibition NDM-1
Description: as §1, §2

IMP-1 = target: T2, IMP-1 (Serratia marcescens, UniProt P52699); assay: biochemical; conditions: for inhibition at 50 µM: read-out: percentage of inhibition IMP-1
T2 construct: made in house; host or cells: E. coli
Description: as §1, §2

VIM-2 [3] = target: T3, VIM-2 (Escherichia coli, UniProt Q5U7L7); assay: biochemical; conditions: read-out: percentage of inhibition VIM-2
T3 construct: made in house; host or cells: E. coli
Description: as §1, §2

[4] = target: T4, human angiotensin-converting enzyme 1 (ACE-1) (Homo sapiens, UniProt P12821); assay: ACE Activity Assay Kit, fluorogenic substrate; assay type: biochemical; conditions: 50 μM inhibitor
T4 construct: purchased Sigma-Aldrich CS0002
Description: To assess the selectivity of the compounds, their inhibitory activity on human angiotensin-converting enzyme 1 (ACE-1) was performed using the ACE Activity Assay Kit (Sigma-Aldrich cat. No. CS0002). […] Captopril (racemic mixture, D- and L-stereoisomers) was used as control in these experiments.

[5] = system: E. coli SI-M001 (bla NDM‑1 +); assay: Imipenem MIC, broth microdilution, with fixed concentration of compound; assay type: cell-based; conditions: for imipenem MIC, E. coli SI-M001 (bla NDM‑1 +): compound at 32 μg/mL, median of three experiments
Description: (§3) In vitro antimicrobial susceptibility testing was performed according to established standards. […]. The strains used in the study were described elsewhere.

[6] = system: E. coli SI-G001 (bla NDM‑4 +); assay type: cell-based; conditions: compound at 32 μg/mL; median of three experiments
Description: (§4) In vitro antimicrobial susceptibility testing was performed according to established standards. […] The strains used in the study were described elsewhere.

[7] = system: E. coli SI–N003 (bla NDM‑7 +); assay type: cell-based; conditions: compound at 32 μg/mL; median of three experiments
Description: as §4

[8] = system: A. baumannii AC-54/97 (bla IMP‑2 +); assay: Imipenem MIC, broth microdilution, with fixed concentration of compound; assay type: cell-based; conditions: for imipenem MIC, A. baumannii AC-54/97 (bla IMP‑2 +): compound at 32 μg/mL, median of three experiments
Description: as §4

[9] = system: K. pneumoniae 7023 (bla VIM‑1 +); assay: as above; assay type: cell-based; conditions: for imipenem MIC, K. pneumoniae 7023 (bla VIM‑1 +): compound at 32 μg/mL, median of three experiments
Description: as §4

[10] = system: K. pneumoniae VA-416/02 (bla VIM‑4 +); assay: as above; assay type: cell-based; conditions: for imipenem MIC, K. pneumoniae VA-416/02 (bla VIM‑4 +): compound at 32 μg/mL, median of three experiments
Description: as §4

[11] = system: S. marcescens SI-1591 (bla VIM‑2 +); assay: microbe, parasite or virus in culture; assay type: cell-based; conditions: for imipenem MIC, S. marcescens SI-1591 (bla VIM‑2 +): compound at 32 μg/mL, median of three experiments
Description: as §4

VIM-2 [12] = target: T3, VIM-2; assay: biochemical; conditions: competitive model, imipenem reporter substrate; read-out: K i VIM-2
[13] = system: K. pneumoniae T2301 (bla NDM‑1 +); assay: Imipenem MIC, broth microdilution, with fixed concentration of compound; assay type: cell-based; conditions: Klebsiella pneumoniae; imipenem alone (compound: None)
Description: as §3

[14] = system: K. pneumoniae T2216 (bla VIM‑1 +); assay: as above; assay type: cell-based; conditions: Klebsiella pneumoniae, read-out: imipenem MIC, K. pneumoniae T2216 (bla VIM‑1 +)
Description: as §4

[15] = system: P. aeruginosa T2325 (bla IMP‑1 +); assay: as above; assay type: cell-based; conditions: Pseudomonas aeruginosa, read-out: imipenem MIC, P. aeruginosa T2325 (bla IMP‑1 +)
Description: as §4

T1 sequence (C7C422 29-270 limits assumed): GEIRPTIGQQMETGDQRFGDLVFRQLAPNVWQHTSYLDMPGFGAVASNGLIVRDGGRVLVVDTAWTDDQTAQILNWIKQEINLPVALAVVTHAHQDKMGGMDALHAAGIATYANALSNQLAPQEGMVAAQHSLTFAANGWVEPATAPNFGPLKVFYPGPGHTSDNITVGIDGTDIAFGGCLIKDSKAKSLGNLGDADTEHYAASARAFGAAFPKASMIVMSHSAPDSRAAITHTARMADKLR
T2 sequence (P52699 19-246, looked up, species assumed): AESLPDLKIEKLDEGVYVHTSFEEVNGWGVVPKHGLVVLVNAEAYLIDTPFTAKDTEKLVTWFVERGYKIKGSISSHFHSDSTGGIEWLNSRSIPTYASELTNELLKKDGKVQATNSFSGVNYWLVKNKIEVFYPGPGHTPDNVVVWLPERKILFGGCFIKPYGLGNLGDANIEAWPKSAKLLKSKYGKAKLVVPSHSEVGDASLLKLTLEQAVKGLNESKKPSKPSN
T4 sequence (P12821 30-1306): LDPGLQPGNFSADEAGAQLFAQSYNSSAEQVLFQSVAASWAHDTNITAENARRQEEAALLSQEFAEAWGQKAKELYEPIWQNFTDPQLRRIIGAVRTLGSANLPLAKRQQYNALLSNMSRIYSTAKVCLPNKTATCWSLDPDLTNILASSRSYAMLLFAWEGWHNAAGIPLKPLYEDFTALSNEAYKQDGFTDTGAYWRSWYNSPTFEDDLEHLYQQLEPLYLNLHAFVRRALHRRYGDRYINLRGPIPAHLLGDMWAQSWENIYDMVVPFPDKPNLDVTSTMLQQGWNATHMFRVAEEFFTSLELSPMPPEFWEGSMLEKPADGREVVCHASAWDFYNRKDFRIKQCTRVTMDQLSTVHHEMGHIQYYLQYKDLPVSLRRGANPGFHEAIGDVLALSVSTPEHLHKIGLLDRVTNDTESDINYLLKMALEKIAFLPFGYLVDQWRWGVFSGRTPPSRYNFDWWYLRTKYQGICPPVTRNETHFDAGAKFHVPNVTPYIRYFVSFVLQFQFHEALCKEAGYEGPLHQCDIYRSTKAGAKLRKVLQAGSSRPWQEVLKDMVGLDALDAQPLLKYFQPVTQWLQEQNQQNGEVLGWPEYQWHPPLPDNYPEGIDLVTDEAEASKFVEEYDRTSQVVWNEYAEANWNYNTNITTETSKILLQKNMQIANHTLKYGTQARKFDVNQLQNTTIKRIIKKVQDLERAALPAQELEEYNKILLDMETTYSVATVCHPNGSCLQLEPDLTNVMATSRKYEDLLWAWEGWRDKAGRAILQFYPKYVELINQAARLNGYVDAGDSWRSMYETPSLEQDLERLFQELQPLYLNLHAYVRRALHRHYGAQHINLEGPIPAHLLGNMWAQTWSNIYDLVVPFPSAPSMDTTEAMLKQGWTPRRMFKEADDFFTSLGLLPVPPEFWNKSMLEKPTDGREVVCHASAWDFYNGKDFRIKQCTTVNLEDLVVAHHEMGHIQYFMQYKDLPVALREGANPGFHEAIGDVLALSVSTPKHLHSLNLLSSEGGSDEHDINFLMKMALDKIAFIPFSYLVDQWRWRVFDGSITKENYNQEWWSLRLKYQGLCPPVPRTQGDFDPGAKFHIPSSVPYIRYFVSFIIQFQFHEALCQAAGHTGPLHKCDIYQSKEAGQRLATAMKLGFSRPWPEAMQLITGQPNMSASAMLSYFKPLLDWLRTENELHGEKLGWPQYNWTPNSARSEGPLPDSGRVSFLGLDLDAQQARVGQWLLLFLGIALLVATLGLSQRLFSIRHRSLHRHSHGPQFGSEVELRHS

| SMILES | IC50 (NDM-1 [1]) [µM] | inhibition at 50 µM (NDM-1 [2]) [%] | inhibition at 50 µM (IMP-1) [%] | inhibition at 50 µM (VIM-2 [3]) [%] | imipenem MIC, E. coli SI-M001 (bla NDM‑1 +) [5] [µg/mL] | imipenem MIC, E. coli SI-G001 (bla NDM‑4 +) [6] [µg/mL] | imipenem MIC, E. coli SI–N003 (bla NDM‑7 +) [7] [µg/mL] | imipenem MIC, A. baumannii AC-54/97 (bla IMP‑2 +) [8] [µg/mL] | imipenem MIC, K. pneumoniae 7023 (bla VIM‑1 +) [9] [µg/mL] | imipenem MIC, K. pneumoniae VA-416/02 (bla VIM‑4 +) [10] [µg/mL] | imipenem MIC, S. marcescens SI-1591 (bla VIM‑2 +) [11] [µg/mL] | also measured |
| --- | --- | --- | --- | --- | --- | --- | --- | --- | --- | --- | --- | --- |
| CCC1(CC)c2ccccc2N(C(=O)[C@H](C)CS)[C@@H]1C(N)=O [6c, (S)-3,3-Diethyl-1-((S)-3-mercapto-2-methylpropanoyl)indoline-2-carboxamide] | 8.4 | 81 | 66 | 96 | 64 | 64 | 64 | 128 | 128 | 128 | 8 | Ki (NDM-1 [2]; competitive model, imipenem reporter substrate, read-out: K i NDM-1): 4.5 ± 0.7 µM; Ki (IMP-1; competitive model, imipenem reporter substrate, read-out: K i IMP-1): 4.9 ± 0.3 µM; inhibition at 50 µM [4]: < 5%; Ki (VIM-2 [12]): 0.16 ± 0.01 µM |
| CCC1(CC)c2ccccc2N(C(=O)[C@H](C)CSC(C)=O)[C@H]1C(N)=O [(S,R′)-14b, ((S)-3-((R)-2-Carbamoyl-3,3-diethylindolin-1-yl)-2-methyl-3-oxopropyl)ethanethioate] | – | ≤ 10 | ≤ 10 | 15 | 32 | 64 | 64 | 128 | 64 | 128 | 8 | – |
| C[C@H](CS)C(=O)N1CCC[C@@H]1C(=O)O [D-captopril, reference compound] | – | 86 | – | – | – | – | – | – | – | – | – | – |
| CC(=O)SC[C@@H](C)C(=O)N1c2ccccc2C2(CCCCC2)[C@H]1C(N)=O [(S,S′)-14c, ((S)-3-((S)-2′-Carbamoylspiro[cyclohexane-1,3′-indolin]-1′-yl)-2-methyl-3-oxopropyl)ethanethioate] | – | ≤ 10 | ≤ 10 | 17 | 16 | 32 | 32 | 128 | 64 | 128 | 8 | – |
| C[C@H](CS)C(=O)N1c2ccccc2C(C)(C)[C@H]1C(=O)NCC(=O)O [7a, ((S)-1-((S)-3-Mercapto-2-methylpropanoyl)-3,3-dimethylindoline-2-carbonyl)glycine] | 40 | 28 | ≤ 10 | 38 | 64 | 64 | 64 | 128 | 128 | 128 | 8 | – |
| C[C@H](CS)C(=O)N1CCC[C@H]1C(=O)O [L-captopril, reference compound] | – | 76 | – | – | – | – | – | – | – | – | – | – |
| CCC1(CC)c2ccccc2N(C(=O)[C@H](C)CS)[C@@H]1C(=O)NCC(=O)O [7c, ((S)-3,3-Diethyl-1-((S)-3-mercapto-2-methylpropanoyl)indoline-2-carbonyl)glycine] | 41 | 43 | 27 | 55 | 64 | 64 | 64 | 128 | 128 | 128 | 16 | – |
| C[C@@H](O)[C@H]1C(=O)N2C(C(=O)O)=C(SCCN=CN)C[C@H]12 [imipenem, reference compound] | – | – | – | – | – | – | – | – | – | – | – | MIC ([5]; Escherichia coli, imipenem alone (compound: None)): 64 µg/mL (≈ 214 µM); MIC [13]: 16 µg/mL (≈ 53.4 µM); MIC ([8]; Acinetobacter baumannii, read-out: imipenem MIC, A. baumannii AC-54/97 (bla IMP‑2 +)): 128 µg/mL (≈ 428 µM); MIC ([9]; Klebsiella pneumoniae, read-out: imipenem MIC, K. pneumoniae 7023 (bla VIM‑1 +)): 128 µg/mL (≈ 428 µM); MIC [14]: 4 µg/mL (≈ 13.4 µM); MIC ([10]; Klebsiella pneumoniae, read-out: imipenem MIC, K. pneumoniae VA-416/02 (bla VIM‑4 +)): 128 µg/mL (≈ 428 µM); MIC [15]: 64 µg/mL (≈ 214 µM); MIC ([11]; Serratia marcescens, read-out: imipenem MIC, S. marcescens SI-1591 (bla VIM‑2 +)): 16 µg/mL (≈ 53.4 µM) |
| CCC1(CC)c2ccccc2N(C(=O)[C@H](C)CS)[C@H]1C(=O)NCC(=O)O [7d, ((R)-3,3-Diethyl-1-((S)-3-mercapto-2-methylpropanoyl)indoline-2-carbonyl)glycine] | 10 | 67 | 17 | 69 | 64 | 64 | 64 | 128 | 128 | 128 | 16 | – |
